The experiment concerns HEK293FT cells transfected with TF library. The experiment can be described thus: Screening of TF condensates based on fluorescent puncta. It is filed as cell-based. The settings on record: Figure 1B numerical data; TF library screen, one value per transcriptional factor. On the procedure:
TF plasmids were automatically added to black-walled 384-well plates at 80 ng per well to reach a final concentration of 1.6 μg/ml. Polyethylenimine (PEI, Sigma) was then added to the plasmid-loaded plates at 240 ng per well (4.8 μg/ml). Subsequently, HEK293FT cells were seeded into the plate at 2000 cells per well. After 60 h, cells were cultured in medium with or without glucose for 12 h, and then fixed with 4% paraformaldehyde (PFA) at room temperature for 30 min. After three washes with PBS, fixed cells were permeabilized with 0.05% Triton X-100 for 15 min. Thereafter, cells were blocked with 5% BSA for 1 h, and then incubated overnight with anti-Flag (Sigma F3165, 1:200) and anti-GAL4 (Abbkine ABP57232, 1:200) primary antibodies at 4 °C. The cells were then gently washed with PBS, followed by being incubated with Alexa Fluor Plus 488 goat anti-mouse IgG secondary antibody (Thermo A32723, 1:400) or Alexa Fluor Plus 488 goat anti-rabbit IgG secondary antibody (Thermo A32731, 1:400) for 1 h. The plates were kept at 4 °C in the dark before being analyzed using an Opera System (Perkin Elmer). Fifty random fields per well were scanned and analyzed using the Columbus Plus Image Data Storage and Analysis System (Perkin Elmer).
With PITX3, the “Z score of condensed fraction” value is given as 1.221.

For SOX15, the “Z score of condensed fraction” value is listed as 0.259.

With TIGD4, the “Z score of condensed fraction” value is reported as -0.7471.

As to ETS2, the “Z score of condensed fraction” value is recorded as -0.1278.

Turning to FEV, the “Z score of condensed fraction” value is -0.8157.

In the case of GATA3, the “Z score of condensed fraction” value is given as -0.2833.

Regarding SP4, the “Z score of condensed fraction” value came to 0.4803.

As for HIVEP2, the “Z score of condensed fraction” value was -0.8032.

For the substance MSX1, the “Z score of condensed fraction” value is -0.7505.

On to MIXL1, for which the “Z score of condensed fraction” value was -0.6564.

With HOXD1, the “Z score of condensed fraction” value is -0.8333.

Consider BIRC3, for which the “Z score of condensed fraction” value was -0.652.

Regarding ZNF92, the “Z score of condensed fraction” value amounted to 0.2513.

On to KDM5D, for which the “Z score of condensed fraction” value came out at 0.3583.

On to BTEB1, for which the “Z score of condensed fraction” value is listed as -0.01224.

Turning to COPEB, the “Z score of condensed fraction” value is -0.3064.

With ZNF679, the “Z score of condensed fraction” value is -1.052.

For the substance SOX14, the “Z score of condensed fraction” value is recorded as 0.5877.

As for HOXD11, the “Z score of condensed fraction” value is -0.6245.

In the case of PDX1, the “Z score of condensed fraction” value is reported as -0.1162.

In the case of ZNF221, the “Z score of condensed fraction” value is given as -0.687.

HOXC11: the “Z score of condensed fraction” value is recorded as -0.01391.

In the case of ZNF345, the “Z score of condensed fraction” value is reported as -1.14.

Regarding HOXC4, the “Z score of condensed fraction” value is given as 0.8193.

Take ZNF273: the “Z score of condensed fraction” value is listed as -0.8812.

As for RERE, the “Z score of condensed fraction” value is -0.9918.

Consider ETV6, for which the “Z score of condensed fraction” value is listed as -0.2068.

Turning to ZNF223, the “Z score of condensed fraction” value was 0.1367.

With ZFP1, the “Z score of condensed fraction” value is -1.01.

Turning to ZNF785, the “Z score of condensed fraction” value was -0.4418.

For the substance ZDHHC17, the “Z score of condensed fraction” value is 0.6824.

With NKX3-1, the “Z score of condensed fraction” value was -0.7603.

Turning to HOXA11, the “Z score of condensed fraction” value was -0.6499.

Take MTF1: the “Z score of condensed fraction” value was found to be 0.05882.

As to VSX1, the “Z score of condensed fraction” value is 0.9653.

For ZNF132, the “Z score of condensed fraction” value is -0.5777.

Consider ZNF10, for which the “Z score of condensed fraction” value was -0.8346.

On to NFIC, for which the “Z score of condensed fraction” value is -0.8557.

ZFP37: the “Z score of condensed fraction” value is on record as -0.4393.

For the substance ZNF57, the “Z score of condensed fraction” value is reported as 0.3.

GSC2: the “Z score of condensed fraction” value is reported as -0.9708.

On to CFOS, for which the “Z score of condensed fraction” value is 0.6801.

For RREB1, the “Z score of condensed fraction” value is on record as -1.018.

For ZNF689, the “Z score of condensed fraction” value was -0.54.

With NH1H1, the “Z score of condensed fraction” value is -0.5104.

Consider ZNF34, for which the “Z score of condensed fraction” value is -0.5261.

For the substance TGIF2, the “Z score of condensed fraction” value was determined as 0.8605.

As for ZNF136, the “Z score of condensed fraction” value was -0.8979.

On to SOX5, for which the “Z score of condensed fraction” value is -1.09.

In the case of ZNF496, the “Z score of condensed fraction” value was 0.02283.

SUMO1: the “Z score of condensed fraction” value is reported as -0.2512.

In the case of ZNF596, the “Z score of condensed fraction” value is -0.5741.

Regarding GBX1, the “Z score of condensed fraction” value was found to be 1.521.

For ZNF417, the “Z score of condensed fraction” value was determined as 1.093.

For ZNF707, the “Z score of condensed fraction” value is recorded as 0.9339.

Take ZNF621: the “Z score of condensed fraction” value is -0.6157.

As for NEUROD6, the “Z score of condensed fraction” value was 1.486.

Take PRRX1: the “Z score of condensed fraction” value is on record as -0.08333.

Turning to HOXA5, the “Z score of condensed fraction” value is on record as -1.091.

Turning to EED, the “Z score of condensed fraction” value is reported as -1.11.

Take LHX8: the “Z score of condensed fraction” value is reported as -0.6943.

In the case of SP7, the “Z score of condensed fraction” value is given as -0.6845.

In the case of WIZ, the “Z score of condensed fraction” value was -0.9233.

Regarding ZFP161, the “Z score of condensed fraction” value is on record as -0.4432.

Turning to NPM1, the “Z score of condensed fraction” value is recorded as 0.01602.

On to ZNF556, for which the “Z score of condensed fraction” value was -0.2629.

Turning to SPIB, the “Z score of condensed fraction” value is listed as -0.6455.

For the substance TAF11, the “Z score of condensed fraction” value is listed as -0.1333.

For the substance ZBTB8A, the “Z score of condensed fraction” value is on record as 0.3848.

Regarding ZNF572, the “Z score of condensed fraction” value is reported as -0.6768.

As for EGR3, the “Z score of condensed fraction” value worked out at 0.2174.

As to ZKSCAN8, the “Z score of condensed fraction” value was -0.06563.

With CHD6, the “Z score of condensed fraction” value is recorded as -1.082.

As to PBRM1, the “Z score of condensed fraction” value is -1.101.

For the substance ZNF768, the “Z score of condensed fraction” value was -0.6686.

As for DLX5, the “Z score of condensed fraction” value was -0.5192.

Take PHOX2B: the “Z score of condensed fraction” value was -1.179.

PAX2: the “Z score of condensed fraction” value is reported as -1.114.

For the substance ZNF490, the “Z score of condensed fraction” value was -0.9623.

As to DLX6, the “Z score of condensed fraction” value is on record as -0.9336.

On to PITX1, for which the “Z score of condensed fraction” value amounted to 0.6327.

As for ZNF37A, the “Z score of condensed fraction” value is on record as -0.5462.

In the case of TAL2, the “Z score of condensed fraction” value is on record as 1.36.

For the substance FIGLA, the “Z score of condensed fraction” value was determined as 0.3984.

For ARNT2, the “Z score of condensed fraction” value is recorded as -0.9281.

Regarding PSMC3, the “Z score of condensed fraction” value was found to be 1.134.

Turning to MEOX1, the “Z score of condensed fraction” value is recorded as -0.5142.

For the substance ZNF530, the “Z score of condensed fraction” value was -0.1863.

For the substance HOXA1, the “Z score of condensed fraction” value is on record as -0.1685.

With ZNF562, the “Z score of condensed fraction” value is 1.118.

On to ZNF77, for which the “Z score of condensed fraction” value is -1.086.

For the substance ZSCAN2, the “Z score of condensed fraction” value is -0.2191.

Take BACH2: the “Z score of condensed fraction” value amounted to 2.257.

Regarding ZNF500, the “Z score of condensed fraction” value is -0.7824.

Take ZFP238: the “Z score of condensed fraction” value is -0.7406.

With ZNF517, the “Z score of condensed fraction” value is -0.6071.

For the substance RAX2, the “Z score of condensed fraction” value worked out at 0.03236.

Take ZNF643: the “Z score of condensed fraction” value is 2.053.

On to TAL1, for which the “Z score of condensed fraction” value is listed as 1.608.

LYL1: the “Z score of condensed fraction” value was -0.8803.

On to COPS5, for which the “Z score of condensed fraction” value is reported as -0.1538.

With MECOM, the “Z score of condensed fraction” value is on record as -0.8438.

Take ZNF267: the “Z score of condensed fraction” value was 2.62.

In the case of EGR2, the “Z score of condensed fraction” value is -0.8859.

Take BHLHE22: the “Z score of condensed fraction” value was found to be 1.286.

For the substance SSX1, the “Z score of condensed fraction” value is given as 0.2068.

With GFI1B, the “Z score of condensed fraction” value is given as -0.772.

Take HOXA9: the “Z score of condensed fraction” value is -1.01.

With PAX6, the “Z score of condensed fraction” value was -0.2168.

For the substance ZSCAN22, the “Z score of condensed fraction” value is listed as -0.5621.

Turning to HOXD4, the “Z score of condensed fraction” value was -0.2008.

Consider PRDM4, for which the “Z score of condensed fraction” value is given as -0.7551.

Take TADA1L: the “Z score of condensed fraction” value was -0.6293.

For the substance HOXC5, the “Z score of condensed fraction” value is -0.4333.

In the case of ZNF22, the “Z score of condensed fraction” value is on record as -0.4323.

Regarding HOX11L2/RNX, the “Z score of condensed fraction” value is listed as 0.134.

Consider HOXB5, for which the “Z score of condensed fraction” value is -0.4916.

ZNF197: the “Z score of condensed fraction” value is recorded as -0.8156.

Turning to HOXA3, the “Z score of condensed fraction” value was -0.6169.

On to DYRK1B, for which the “Z score of condensed fraction” value is -0.5775.

As for PRDM2, the “Z score of condensed fraction” value was -1.186.

Take ELF1: the “Z score of condensed fraction” value was 3.027.

Regarding HOXB7, the “Z score of condensed fraction” value is on record as 0.6165.

As to BMAL1, the “Z score of condensed fraction” value is reported as -0.6251.

As to GLI2, the “Z score of condensed fraction” value is recorded as -0.605.

For HOXB4, the “Z score of condensed fraction” value is -1.061.

Take NFIB: the “Z score of condensed fraction” value stood at 0.509.

In the case of EPAS1, the “Z score of condensed fraction” value is listed as -0.6882.

For the substance NR5A1, the “Z score of condensed fraction” value was -0.8082.

On to SUPT3H, for which the “Z score of condensed fraction” value is reported as 2.5076.

On to CSDA, for which the “Z score of condensed fraction” value was -0.8745.

Take PAX9: the “Z score of condensed fraction” value is -0.6994.

Regarding SOX21, the “Z score of condensed fraction” value is recorded as -0.645.

In the case of TFAP2E, the “Z score of condensed fraction” value is 1.779.

Take KLF13: the “Z score of condensed fraction” value is given as -0.9454.

As to HOXB8, the “Z score of condensed fraction” value is -0.6846.

As to HOXB13, the “Z score of condensed fraction” value is -0.5432.

For the substance TFAP2C, the “Z score of condensed fraction” value was determined as 1.42.

As to ZNF333, the “Z score of condensed fraction” value is on record as -0.8758.

Consider ZNF695, for which the “Z score of condensed fraction” value is -0.08978.

Regarding ZNF747, the “Z score of condensed fraction” value is on record as 1.603.

In the case of DLX3, the “Z score of condensed fraction” value is recorded as -0.9246.

As to ZFP263, the “Z score of condensed fraction” value was determined as 2.5993.

As for ZNF254, the “Z score of condensed fraction” value was found to be 0.4246.

As to KLF9, the “Z score of condensed fraction” value was -0.8423.

For PCBD2, the “Z score of condensed fraction” value was -0.6918.

In the case of PHF19, the “Z score of condensed fraction” value was -0.6582.

As for ZNF454, the “Z score of condensed fraction” value is -0.2763.

For ZNF829, the “Z score of condensed fraction” value was 0.6314.

ZNF670: the “Z score of condensed fraction” value was found to be 2.5783.

With HOXC9, the “Z score of condensed fraction” value was -0.7207.

On to ZNF177, for which the “Z score of condensed fraction” value is -0.2364.

For MAX, the “Z score of condensed fraction” value worked out at 1.089.

In the case of ARX, the “Z score of condensed fraction” value is on record as -0.4034.

These data come from PMC11574045, “A cofactor-induced repressive type of transcription factor condensation can be induced by synthetic peptides to suppress tumorigenesis” (The EMBO Journal, 2024).
